Experimental findings from patent publication US10385065B2, “Antibacterial compounds” (priority 2014, dated 2019) are described below.

Experiment [1] deals with Staphylococcus aureus ATCC 29213. The experiment is described as follows: MIC, broth microdilution, S. aureus ATCC 29213. It is filed as cell-based.
Experiment [2] relates to Escherichia coli ATCC 25922. The experiment in a line: MIC, broth microdilution, E. coli ATCC 25922. It is filed as cell-based. The following applies: ATCC25922, Table 1, wild type strain.
The test system of experiment [3] is S. aureus NRS482 MRSA FQ resistant. The experiment in a line: MIC, S. aureus NRS482. It is filed as cell-based. The following applies: Staphylococcus aureus; Table 2.
Experiment [4] deals with S. aureus (MRSA) ATCC 43300. The experiment in a line: MIC, S. aureus ATCC 43300. It is filed as cell-based. The following applies: Staphylococcus aureus; Table 2; read-out: MIC S. aureus (MRSA) ATCC 43300 Heterogeneous MRSA strain.
The test system of the next experiment is S. aureus NRS1 MRSA. The experiment in a line: MIC, S. aureus NRS1. The experiment is classed as cell-based. The following applies: Staphylococcus aureus; Table 2; read-out: MIC S. aureus NRS1 MRSA AMG & TET resistant.
Another experiment concerns S. aureus NRS70 MRSA. The experiment in a line: MIC, S. aureus NRS70. The experiment is classed as cell-based. The following applies: Staphylococcus aureus; Table 2.
The next experiment deals with S. aureus NRS100 MRSA. The experiment is described as follows: MIC, S. aureus NRS100. It is filed as cell-based. The following applies: Staphylococcus aureus; Table 2.
In experiment [5] the test system is S. aureus SACPX1-SP25 MSSA - FQ resistant. The experiment is described as follows: microbe, parasite or virus in culture. The experiment is classed as cell-based. The following applies: Staphylococcus aureus, ATCC 29213 / MSSA, read-out: MIC S. aureus SACPX1-SP25 MSSA - FQ resistant (isogenic mutant of ATCC 29213).
Experiment [6] concerns S. aureus NRS127 MRSA LZD resistant. The experiment is described as follows: MIC, S. aureus NRS127. It is filed as cell-based. The following applies: Staphylococcus aureus; Table 2.
Experiment [7] relates to S. aureus VRS1 MRSA VAN resistant. The experiment in a line: MIC, S. aureus VRS1. The experiment is classed as cell-based. The following applies: Staphylococcus aureus, Table 2.
For experiment [8], the system named is S. aureus NRS107 MUP resistant. The experiment in a line: MIC, S. aureus NRS107. It is filed as cell-based. The following applies: Staphylococcus aureus, Table 2.
Experiment [9] has as its system S. epidermidis NRS101 MRSE. The experiment is described as follows: MIC, S. epidermidis NRS101. It is filed as cell-based. The following applies: Staphylococcus epidermidis; Table 2; read-out: MIC S. epidermidis NRS101 MRSE AMG, ERY resistant.
The subject of experiment [10] is Enterococcus faecium ATCC 19434. The experiment in a line: MIC, E. faecium ATCC 19434. It is filed as cell-based. The following applies: ATCC19434, Table 2.
Experiment [11] deals with Streptococcus pneumoniae ATCC BAA-255. The experiment in a line: MIC, S. pneumoniae ATCC BAA-255. The following applies: ATCCBAA255, Table 2. It is filed as cell-based.
Experiment [12] relates to Haemophilus influenzae ATCC 49247. The experiment is described as follows: MIC, H. influenzae ATCC 49247. The following applies: ATCC49247, Table 4. The experiment is classed as cell-based.
The subject of experiment [13] is Moraxella catarrhalis ATCC 25240. The experiment is described as follows: MIC, M. catarrhalis ATCC 25240. The experiment is classed as cell-based. The following applies: ATCC25240, Table 4.
In experiment [14] the test system is Legionella pneumophila ATCC 33152. The experiment is described as follows: microbe, parasite or virus in culture. It is filed as cell-based. The following applies: ATCC33152, 48 h, read-out: MIC Legionella pneumophila ATCC 33152.
For experiment [15], the system named is Neisseria gonorrhoeae ATCC 49226. The experiment is described as follows: MIC, N. gonorrhoeae ATCC 49226. It is filed as cell-based. The following applies: ATCC49226, Table 4, 24 h incubation.
Experiment [16] has as its system Neisseria meningitidis ATCC 13090. The experiment is described as follows: MIC, N. meningitidis ATCC 13090. The experiment is classed as cell-based. The following applies: ATCC13090, Table 4, 24 h incubation.
The subject of experiment [17] is Mycobacterium smegmatis ATCC 19420. The experiment in a line: MIC, M. smegmatis ATCC 19420. It is filed as cell-based. The following applies: Mycolicibacterium smegmatis, ATCC19420; Table 4, 72 h incubation.
Experiment [18] concerns human hepatic cell line (HepG2 ATCC HB-8065). The experiment in a line: Human cell viability assay (CellTiter-Glo), HepG2. The following applies: HepG2, 24 h incubation, tested over 1-128 μg/mL, read-out: IC50 values against HepG2. The experiment is classed as cell-based. The procedure, abridged:
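HepG2 seeded at 20,000 cells/well, then after 24 h given two-fold serial dilutions (1-128 μg/mL, 1% DMSO) in DMEM with 0.001% FBS and 0.3% albumin. After 24 h at 37 °C, ATP luminescence (CellTiter-Glo) read; IC50 is the concentration halving viability.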

The subject of experiment [19] is S. aureus NRS106 (fluoroquinolone susceptible MSSA). The experiment is described as follows: MIC, S. aureus NRS106. It is filed as cell-based. The following applies: Staphylococcus aureus.
Experiment [20] has as its system S. aureus NRS384 (MRSA - fluoroquinolone susceptible). The experiment is described as follows: MIC, S. aureus NRS384. The following applies: Staphylococcus aureus, read-out: MIC S. aureus NRS384. The experiment is classed as cell-based.
The subject of another experiment is S. aureus NRS74. The experiment in a line: MIC, S. aureus NRS74. The experiment is classed as cell-based. The following applies: Staphylococcus aureus, MRSA / NRS 74, read-out: MIC S. aureus NRS74.
In another experiment the test system is S. aureus NRS108. The experiment in a line: MIC, S. aureus NRS108. The experiment is classed as cell-based. The following applies: Staphylococcus aureus, MRSA / NRS 108, read-out: MIC S. aureus NRS108.
The next experiment relates to S. aureus NRS271. The experiment is described as follows: MIC, S. aureus NRS271. It is filed as cell-based. The following applies: Staphylococcus aureus, MRSA / NRS 271, read-out: MIC S. aureus NRS271.
For the next experiment, the system named is S. aureus VRS8. The experiment is described as follows: MIC, S. aureus VRS8. It is filed as cell-based. The following applies: Staphylococcus aureus, MRSA, read-out: MIC S. aureus VRS8.
The subject of experiment [21] is S. aureus SACPX1-SP28 (MSSA - fluoroquinolone resistant). The experiment is described as follows: MIC, S. aureus SACPX1-SP28. It is filed as cell-based. The following applies: Staphylococcus aureus, read-out: MIC S. aureus SACPX1-SP28.
The subject of experiment [22] is Mycobacterium tuberculosis H37Rv. The experiment in a line: MIC, M. tuberculosis H37Rv. It is filed as cell-based. The following applies: virulent tuberculosis-causative strain.
Experiment [23] has as its system all strains of S. aureus tested. The experiment in a line: Antibacterial susceptibility, all S. aureus strains tested. The experiment is classed as cell-based, Staphylococcus aureus. The following applies: including strains resistant to fluoroquinolone and other antibiotics.
The mark [24] stands for this setting: ATCC29213, Table 1, wild type strain, read-out: MIC S. aureus ATCC 29213.
Setting [25] is: ATCC 29213 / MSSA, Table 2, read-out: MIC S. aureus (MSSA) ATCC 29213 CLSI control strain.

SMILES strings stand for the structures. ≈ marks a conversion by molar mass, not a printed value. Like-named read-outs stand apart in the source and are kept apart here.

Regarding `Cc1c(-c2cc(F)c(N)cc2F)ccc2c3ocnc3c(=O)n(C3CC3)c12` [Compound 1, 7-(4-amino-2,5-difluoro-phenyl)-5-cyclopropyl-6-methyl-oxazolo[4,5-c]quinolin-4-one], the MIC in [1] (setting [24]) was < 1 µg/mL; in experiment [1] (setting [25]), < 1 µg/mL; in [2], > 100 µg/mL; in [3], < 1 µg/mL; in experiment [4], < 1 µg/mL; with S. aureus NRS1 MRSA it was < 1 µg/mL. Moreover, the MIC (against S. aureus NRS70 MRSA; in the experiment with S. aureus NRS100 MRSA; in [5] (Table 2); in experiment [6]; in [7]; in experiment [8]) was < 1 µg/mL each time. Moreover, the MIC in [9] is < 1 µg/mL; in experiment [10], > 100 µg/mL; in experiment [11], 1 to 10 µg/mL (≈ 2.72 to 27.2 µM); in experiment [12] it was < 1 µg/mL; in [13] it was < 1 µg/mL; in [14], < 1 µg/mL. Besides, the MIC (in experiment [15]; in experiment [16]; in experiment [17]; in experiment [19]; in [20]; in the experiment on S. aureus NRS74) was < 1 µg/mL each time. Moreover, the MIC is < 1 µg/mL in the experiment on S. aureus NRS108; < 1 µg/mL in the experiment on S. aureus NRS271; < 1 µg/mL in the experiment with S. aureus VRS8; < 1 µg/mL in experiment [21]; < 8 µg/mL in experiment [22]. Besides, the IC50 in experiment [18] is > 100 µg/mL. Also, the “activity against all strains of S. aureus tested” value in experiment [23] was “excellent activity”.

Take `Cc1nc2c(=O)n(C3CC3)c3c(C)c(-c4ccc(CN)c(F)c4)ccc3c2o1` [Compound 36, 7-[4-(aminomethyl)-3-fluoro-phenyl]-5-cyclopropyl-2,6-dimethyl-oxazolo[4,5-c]quinolin-4-one]: the MIC in experiment [1] (setting [24]) was < 1 µg/mL; in [1] (setting [25]), < 1 µg/mL; in experiment [2], 1 to 10 µg/mL (≈ 2.65 to 26.5 µM); in experiment [3] it was 1 to 10 µg/mL (≈ 2.65 to 26.5 µM); in experiment [4], < 1 µg/mL; in the experiment on S. aureus NRS1 MRSA, > 100 µg/mL. Besides, the MIC is < 1 µg/mL against S. aureus NRS70 MRSA; 1 to 10 µg/mL (≈ 2.65 to 26.5 µM) with S. aureus NRS100 MRSA; 1 to 10 µg/mL (≈ 2.65 to 26.5 µM) in experiment [5]; 1 to 10 µg/mL (≈ 2.65 to 26.5 µM) in experiment [6]; 10 to 100 µg/mL (≈ 26.5 to 265 µM) in experiment [7]; 1 to 10 µg/mL (≈ 2.65 to 26.5 µM) in experiment [8]. The MIC in [9] was 10 to 100 µg/mL (≈ 26.5 to 265 µM); in experiment [10], 10 to 100 µg/mL (≈ 26.5 to 265 µM); in experiment [11], 1 to 10 µg/mL (≈ 2.65 to 26.5 µM); in [12], 1 to 10 µg/mL (≈ 2.65 to 26.5 µM); in [13], 1 to 10 µg/mL (≈ 2.65 to 26.5 µM); in experiment [14] it was < 1 µg/mL. Also, the figures for the MIC in experiment [15] and in experiment [16] were 10 to 100 µg/mL (≈ 26.5 to 265 µM) and < 1 µg/mL, respectively. For the same compound, the concentration for half-maximal inhibition (IC50) in experiment [18] is > 100 µg/mL.

As for `Cc1c(-c2ccc3[nH]ncc3c2)ccc2c3ocnc3c(=O)n(C3CC3)c12` [Compound 39, 5-cyclopropyl-7-(1H-indazol-5-yl)-6-methyl-oxazolo[4,5-c]quinolin-4-one], the MIC in experiment [1] (setting [24]) was < 1 µg/mL; in [1] (setting [25]), < 1 µg/mL; in experiment [2], 1 to 10 µg/mL (≈ 2.81 to 28.1 µM); in experiment [3], < 1 µg/mL; in experiment [4], < 1 µg/mL; in the experiment on S. aureus NRS1 MRSA it was < 1 µg/mL. Also, the MIC (against S. aureus NRS70 MRSA; in the experiment with S. aureus NRS100 MRSA; in experiment [5]; in experiment [6]; in [7]; in experiment [8]) was < 1 µg/mL throughout. Moreover, the MIC was < 1 µg/mL in experiment [9]; 10 to 100 µg/mL (≈ 28.1 to 281 µM) in experiment [10]; < 1 µg/mL in experiment [11]; < 1 µg/mL in [12]; < 1 µg/mL in [15]; < 1 µg/mL in experiment [16]. The same compound returned an MIC in experiment [17] of 1 to 10 µg/mL (≈ 2.81 to 28.1 µM). The half-inhibitory concentration (IC50) in experiment [18] lay in the range of 10 to 100 µg/mL (≈ 28.1 to 281 µM).
